From ChEMBL document CHEMBL3813616, “Discovery of novel 7-azaindoles as PDK1 inhibitors” (Bioorg Med Chem Lett, 2016)

Tests used:
[1] = target: T1, MAP kinase-activated protein kinase 5 (Homo sapiens) (UniProt Q8IW41); assay: Inhibition of human PRAK (1 to 471 residues) assessed as enzyme activity at 1 uM using 33P ATP by radioactive filter binding assay; parameters: scale not given: the % may be the effect or the level left
T1 sequence (whole entry): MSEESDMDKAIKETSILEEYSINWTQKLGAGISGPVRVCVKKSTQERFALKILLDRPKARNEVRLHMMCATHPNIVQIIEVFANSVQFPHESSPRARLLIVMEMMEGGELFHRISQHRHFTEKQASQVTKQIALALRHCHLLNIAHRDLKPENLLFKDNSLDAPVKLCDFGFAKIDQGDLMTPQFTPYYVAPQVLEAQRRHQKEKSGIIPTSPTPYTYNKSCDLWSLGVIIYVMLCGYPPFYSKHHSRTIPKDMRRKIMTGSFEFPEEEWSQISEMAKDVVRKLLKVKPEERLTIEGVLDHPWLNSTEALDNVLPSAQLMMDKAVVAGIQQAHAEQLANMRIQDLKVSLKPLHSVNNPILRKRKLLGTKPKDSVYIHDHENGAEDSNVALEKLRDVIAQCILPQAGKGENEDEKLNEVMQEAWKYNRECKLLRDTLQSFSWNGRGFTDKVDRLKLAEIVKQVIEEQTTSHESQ

[2] = target: Serine/threonine-protein kinase N2 (Homo sapiens) (UniProt Q16513); assay: Inhibition of human PRK2 (501 to 984 residues) assessed as enzyme activity at 1 uM using 33P ATP by radioactive filter binding assay; parameters: scale not given: the % may be the effect or the level left
Sequence of Serine/threonine-protein kinase N2 (Homo sapiens) (Q16513 whole entry, looked up, the tested form may be a part): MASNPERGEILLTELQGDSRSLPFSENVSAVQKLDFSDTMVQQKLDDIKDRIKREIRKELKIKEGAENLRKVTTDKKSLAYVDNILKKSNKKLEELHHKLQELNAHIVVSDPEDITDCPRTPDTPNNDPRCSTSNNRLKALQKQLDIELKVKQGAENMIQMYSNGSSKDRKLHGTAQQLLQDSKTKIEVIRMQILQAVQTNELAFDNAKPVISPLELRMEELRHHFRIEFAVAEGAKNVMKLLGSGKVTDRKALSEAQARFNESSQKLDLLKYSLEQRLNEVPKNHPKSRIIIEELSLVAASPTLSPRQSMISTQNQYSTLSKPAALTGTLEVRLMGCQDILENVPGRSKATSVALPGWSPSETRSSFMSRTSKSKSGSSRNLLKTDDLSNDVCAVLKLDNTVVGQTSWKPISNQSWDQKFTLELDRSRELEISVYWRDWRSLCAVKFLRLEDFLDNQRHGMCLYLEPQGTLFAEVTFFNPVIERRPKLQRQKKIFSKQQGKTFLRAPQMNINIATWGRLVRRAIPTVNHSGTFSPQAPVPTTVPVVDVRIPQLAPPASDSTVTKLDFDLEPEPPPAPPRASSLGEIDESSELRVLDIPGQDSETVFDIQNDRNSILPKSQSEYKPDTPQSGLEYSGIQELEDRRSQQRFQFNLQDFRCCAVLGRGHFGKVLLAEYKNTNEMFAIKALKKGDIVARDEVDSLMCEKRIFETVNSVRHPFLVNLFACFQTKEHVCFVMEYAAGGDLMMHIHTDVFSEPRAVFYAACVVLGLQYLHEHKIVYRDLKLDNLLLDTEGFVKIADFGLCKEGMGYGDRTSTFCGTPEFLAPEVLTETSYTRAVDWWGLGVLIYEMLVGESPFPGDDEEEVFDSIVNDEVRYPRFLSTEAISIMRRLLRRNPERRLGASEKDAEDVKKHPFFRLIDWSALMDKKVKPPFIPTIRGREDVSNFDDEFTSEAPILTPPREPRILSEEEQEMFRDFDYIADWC

[3] = Intrinsic clearance in human liver microsomes; assay type: ADME; conditions: read-out: CLH
[4] = target: Insulin-like growth factor 1 receptor (Homo sapiens) (UniProt P08069); assay: Inhibition of human IGF1R (954 to 1367 residues) assessed as enzyme activity at 1 uM using 33P ATP by radioactive filter binding assay; parameters: scale not given: the % may be the effect or the level left
Sequence of Insulin-like growth factor 1 receptor (Homo sapiens) (P08069 31-736 limits assumed): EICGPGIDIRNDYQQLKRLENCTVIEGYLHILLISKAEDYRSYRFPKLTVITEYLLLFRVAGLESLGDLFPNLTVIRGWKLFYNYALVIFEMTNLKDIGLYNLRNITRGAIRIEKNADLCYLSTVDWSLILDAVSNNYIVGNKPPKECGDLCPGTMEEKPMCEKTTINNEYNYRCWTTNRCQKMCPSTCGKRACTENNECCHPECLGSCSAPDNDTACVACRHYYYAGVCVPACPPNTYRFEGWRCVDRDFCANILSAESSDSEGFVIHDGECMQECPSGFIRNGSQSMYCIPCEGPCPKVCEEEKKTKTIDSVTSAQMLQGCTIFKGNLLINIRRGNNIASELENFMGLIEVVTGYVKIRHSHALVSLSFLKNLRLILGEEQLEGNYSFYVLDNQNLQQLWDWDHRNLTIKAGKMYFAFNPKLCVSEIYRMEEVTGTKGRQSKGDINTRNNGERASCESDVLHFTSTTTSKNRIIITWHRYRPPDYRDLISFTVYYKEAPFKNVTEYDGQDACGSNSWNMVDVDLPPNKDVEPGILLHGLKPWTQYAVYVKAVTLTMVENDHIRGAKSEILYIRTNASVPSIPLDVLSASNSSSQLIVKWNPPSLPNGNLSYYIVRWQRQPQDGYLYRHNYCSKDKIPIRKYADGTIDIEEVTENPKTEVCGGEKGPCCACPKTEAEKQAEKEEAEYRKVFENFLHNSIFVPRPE
Sequence of Insulin-like growth factor 1 receptor (Homo sapiens) (P08069 741-1367 limits assumed): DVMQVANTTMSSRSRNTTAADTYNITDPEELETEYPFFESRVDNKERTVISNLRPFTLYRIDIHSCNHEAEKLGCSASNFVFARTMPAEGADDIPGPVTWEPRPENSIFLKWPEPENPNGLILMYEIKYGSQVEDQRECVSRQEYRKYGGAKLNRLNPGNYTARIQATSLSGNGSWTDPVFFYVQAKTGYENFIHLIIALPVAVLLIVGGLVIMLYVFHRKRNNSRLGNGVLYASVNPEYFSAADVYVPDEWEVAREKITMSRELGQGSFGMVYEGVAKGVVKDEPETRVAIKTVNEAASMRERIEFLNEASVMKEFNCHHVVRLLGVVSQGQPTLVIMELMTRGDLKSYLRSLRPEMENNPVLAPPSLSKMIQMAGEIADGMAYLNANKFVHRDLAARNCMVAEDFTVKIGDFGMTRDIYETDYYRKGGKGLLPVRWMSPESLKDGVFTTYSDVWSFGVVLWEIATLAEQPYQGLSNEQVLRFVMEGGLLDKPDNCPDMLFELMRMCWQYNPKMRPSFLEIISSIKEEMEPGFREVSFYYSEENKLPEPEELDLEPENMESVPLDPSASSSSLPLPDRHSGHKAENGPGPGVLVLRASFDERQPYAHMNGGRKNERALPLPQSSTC

[5] = target: MAP kinase-interacting serine/threonine-protein kinase 1 (Homo sapiens) (UniProt Q9BUB5); assay: Inhibition of human MNK1 (2 to 424 residues) assessed as enzyme activity at 1 uM using 33P ATP by radioactive filter binding assay; parameters: scale not given: the % may be the effect or the level left
Sequence of MAP kinase-interacting serine/threonine-protein kinase 1 (Homo sapiens) (Q9BUB5 whole entry, looked up, the tested form may be a part): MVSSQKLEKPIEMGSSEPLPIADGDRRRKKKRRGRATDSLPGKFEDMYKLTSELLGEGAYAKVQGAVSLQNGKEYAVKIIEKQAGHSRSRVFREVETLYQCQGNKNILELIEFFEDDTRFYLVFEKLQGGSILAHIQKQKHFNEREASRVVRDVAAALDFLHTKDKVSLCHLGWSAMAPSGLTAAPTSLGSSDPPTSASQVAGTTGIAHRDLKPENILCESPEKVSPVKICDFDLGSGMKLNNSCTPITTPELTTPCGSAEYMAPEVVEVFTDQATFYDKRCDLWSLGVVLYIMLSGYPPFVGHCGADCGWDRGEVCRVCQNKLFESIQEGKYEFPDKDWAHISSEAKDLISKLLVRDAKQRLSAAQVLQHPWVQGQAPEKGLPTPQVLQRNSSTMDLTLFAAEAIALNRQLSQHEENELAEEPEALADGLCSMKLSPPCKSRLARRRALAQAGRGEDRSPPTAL

[6] = Permeability across apical to basolateral side in human Caco2 cells; assay type: ADME, cell-based; conditions: Caco-2
[7] = target: Phosphatidylinositol 4,5-bisphosphate 3-kinase catalytic subunit beta isoform (Homo sapiens, UniProt P42338); assay: Inhibition of PI3K beta (unknown origin)
Sequence of Phosphatidylinositol 4,5-bisphosphate 3-kinase catalytic subunit beta isoform (P42338 whole entry, the tested form may be a part, canonical isoform): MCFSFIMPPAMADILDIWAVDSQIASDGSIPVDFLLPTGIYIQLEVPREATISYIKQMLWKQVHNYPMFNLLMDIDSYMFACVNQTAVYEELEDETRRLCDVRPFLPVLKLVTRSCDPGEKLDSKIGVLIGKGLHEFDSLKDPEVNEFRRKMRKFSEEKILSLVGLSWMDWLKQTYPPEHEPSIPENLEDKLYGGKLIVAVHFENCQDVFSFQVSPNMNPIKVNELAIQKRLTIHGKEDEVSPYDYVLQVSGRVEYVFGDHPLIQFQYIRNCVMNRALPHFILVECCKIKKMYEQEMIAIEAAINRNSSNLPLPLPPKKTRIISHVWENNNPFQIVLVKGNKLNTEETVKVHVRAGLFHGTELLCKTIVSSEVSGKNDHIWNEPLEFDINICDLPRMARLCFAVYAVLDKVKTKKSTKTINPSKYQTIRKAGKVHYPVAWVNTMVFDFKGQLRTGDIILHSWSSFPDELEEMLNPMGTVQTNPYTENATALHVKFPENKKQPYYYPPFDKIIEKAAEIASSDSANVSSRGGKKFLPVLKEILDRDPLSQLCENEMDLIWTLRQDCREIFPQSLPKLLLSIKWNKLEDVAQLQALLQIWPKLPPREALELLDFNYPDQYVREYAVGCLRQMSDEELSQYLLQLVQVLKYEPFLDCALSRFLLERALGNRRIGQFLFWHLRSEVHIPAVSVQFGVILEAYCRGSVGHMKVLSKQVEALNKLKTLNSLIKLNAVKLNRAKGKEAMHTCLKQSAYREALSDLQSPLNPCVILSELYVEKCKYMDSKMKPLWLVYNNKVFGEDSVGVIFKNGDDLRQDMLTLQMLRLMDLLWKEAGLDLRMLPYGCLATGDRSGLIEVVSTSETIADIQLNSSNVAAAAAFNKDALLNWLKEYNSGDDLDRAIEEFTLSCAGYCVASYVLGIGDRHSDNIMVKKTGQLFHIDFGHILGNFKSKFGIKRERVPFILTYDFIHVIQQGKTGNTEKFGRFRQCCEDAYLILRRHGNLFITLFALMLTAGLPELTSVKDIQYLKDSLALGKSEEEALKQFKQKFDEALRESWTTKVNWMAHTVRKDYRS

[8] = target: T2, Serine/threonine-protein kinase D1 (Homo sapiens) (UniProt Q15139); assay: Inhibition of human PKD1 (2 to 912 residues) assessed as enzyme activity at 1 uM using 33P ATP by radioactive filter binding assay; parameters: scale not given: the % may be the effect or the level left
T2 sequence (whole entry): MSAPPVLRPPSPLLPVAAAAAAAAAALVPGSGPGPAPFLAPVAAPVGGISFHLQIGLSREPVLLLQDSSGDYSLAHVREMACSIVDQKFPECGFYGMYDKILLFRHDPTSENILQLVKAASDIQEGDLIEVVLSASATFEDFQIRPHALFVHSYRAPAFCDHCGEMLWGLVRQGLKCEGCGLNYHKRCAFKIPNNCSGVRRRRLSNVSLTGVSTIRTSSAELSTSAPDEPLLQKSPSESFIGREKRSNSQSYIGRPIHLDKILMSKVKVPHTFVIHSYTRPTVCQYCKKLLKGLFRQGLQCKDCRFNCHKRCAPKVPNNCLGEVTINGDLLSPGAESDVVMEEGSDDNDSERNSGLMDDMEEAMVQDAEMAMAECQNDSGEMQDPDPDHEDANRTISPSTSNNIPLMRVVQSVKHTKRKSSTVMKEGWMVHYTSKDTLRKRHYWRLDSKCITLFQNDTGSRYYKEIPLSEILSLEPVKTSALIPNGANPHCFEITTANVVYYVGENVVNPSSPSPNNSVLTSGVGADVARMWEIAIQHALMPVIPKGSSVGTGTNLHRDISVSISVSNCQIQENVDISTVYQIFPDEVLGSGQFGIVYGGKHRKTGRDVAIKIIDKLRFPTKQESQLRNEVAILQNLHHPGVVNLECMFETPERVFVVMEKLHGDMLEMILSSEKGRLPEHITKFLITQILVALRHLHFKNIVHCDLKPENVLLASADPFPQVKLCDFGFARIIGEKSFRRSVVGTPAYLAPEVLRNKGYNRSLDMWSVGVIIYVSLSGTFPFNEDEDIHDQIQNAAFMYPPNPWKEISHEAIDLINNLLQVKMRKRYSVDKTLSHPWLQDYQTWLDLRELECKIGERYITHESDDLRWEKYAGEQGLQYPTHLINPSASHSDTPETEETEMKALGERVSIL

[9] = Intrinsic clearance in mouse liver microsomes; assay type: ADME; conditions: read-out: CLH
[10] = target: Serine/threonine-protein kinase PAK 5 (Homo sapiens) (UniProt Q9P286); assay: Inhibition of human PAK5 (2 to 719 residues) assessed as enzyme activity at 1 uM using 33P ATP by radioactive filter binding assay; parameters: scale not given: the % may be the effect or the level left
Sequence of Serine/threonine-protein kinase PAK 5 (Homo sapiens) (Q9P286 whole entry, looked up, the tested form may be a part): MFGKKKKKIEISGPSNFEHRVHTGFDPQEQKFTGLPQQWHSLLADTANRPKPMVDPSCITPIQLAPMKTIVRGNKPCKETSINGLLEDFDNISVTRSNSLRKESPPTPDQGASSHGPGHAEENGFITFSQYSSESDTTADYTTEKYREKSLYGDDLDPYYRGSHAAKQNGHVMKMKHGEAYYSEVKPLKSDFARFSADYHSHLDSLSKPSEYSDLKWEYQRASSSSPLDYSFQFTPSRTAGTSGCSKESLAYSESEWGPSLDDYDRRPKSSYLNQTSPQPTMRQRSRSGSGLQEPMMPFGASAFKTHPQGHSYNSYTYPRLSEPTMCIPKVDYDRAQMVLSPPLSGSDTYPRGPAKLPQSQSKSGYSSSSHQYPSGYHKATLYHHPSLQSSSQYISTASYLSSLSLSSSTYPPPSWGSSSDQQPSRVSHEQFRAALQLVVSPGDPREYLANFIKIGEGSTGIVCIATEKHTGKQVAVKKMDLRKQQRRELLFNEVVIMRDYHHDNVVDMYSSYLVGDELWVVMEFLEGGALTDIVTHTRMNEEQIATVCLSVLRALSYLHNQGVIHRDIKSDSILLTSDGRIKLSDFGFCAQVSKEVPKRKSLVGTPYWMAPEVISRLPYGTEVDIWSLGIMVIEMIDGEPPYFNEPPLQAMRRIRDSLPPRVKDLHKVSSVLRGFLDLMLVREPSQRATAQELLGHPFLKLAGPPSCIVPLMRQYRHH

[11] = target: T3, Serine/threonine-protein kinase 3 (Homo sapiens) (UniProt Q13188); assay: Inhibition of human MST2 (2 to 491 residues) assessed as enzyme activity at 1 uM using 33P ATP by radioactive filter binding assay; parameters: scale not given: the % may be the effect or the level left
T3 sequence (whole entry): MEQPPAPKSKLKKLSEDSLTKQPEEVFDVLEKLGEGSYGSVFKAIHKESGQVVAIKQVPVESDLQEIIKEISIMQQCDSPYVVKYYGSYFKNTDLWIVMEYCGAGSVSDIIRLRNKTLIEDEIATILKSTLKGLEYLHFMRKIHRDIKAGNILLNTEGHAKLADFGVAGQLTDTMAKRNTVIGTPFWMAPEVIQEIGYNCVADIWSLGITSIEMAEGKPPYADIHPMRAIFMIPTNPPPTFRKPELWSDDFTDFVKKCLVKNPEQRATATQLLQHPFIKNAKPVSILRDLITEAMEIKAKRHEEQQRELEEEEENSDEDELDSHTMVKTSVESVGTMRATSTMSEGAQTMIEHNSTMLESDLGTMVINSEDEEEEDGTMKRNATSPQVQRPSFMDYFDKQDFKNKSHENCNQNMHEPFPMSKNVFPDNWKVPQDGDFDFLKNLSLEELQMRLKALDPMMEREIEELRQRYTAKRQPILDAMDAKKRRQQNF

[12] = target: Aurora kinase C (Homo sapiens) (UniProt Q9UQB9); assay: Inhibition of AURKC (unknown origin) assessed as enzyme activity at 1 uM using 33P ATP by radioactive filter binding assay; parameters: scale not given: the % may be the effect or the level left
[13] = target: Homeodomain-interacting protein kinase 3 (Homo sapiens) (UniProt Q9H422); assay: Inhibition of human HIPK3 (161 to 562 residues) assessed as enzyme activity at 1 uM using 33P ATP by radioactive filter binding assay; parameters: scale not given: the % may be the effect or the level left
[14] = target: Mitogen-activated protein kinase 10 (Homo sapiens) (UniProt P53779); assay: Inhibition of human JNK3alpha1 assessed as enzyme activity at 1 uM using 33P ATP by radioactive filter binding assay; parameters: scale not given: the % may be the effect or the level left
[15] = target: MAP kinase-activated protein kinase 3 (Homo sapiens) (UniProt Q16644); assay: Inhibition of human MAPKAPK3 (2 to 382 residues) assessed as enzyme activity at 1 uM using 33P ATP by radioactive filter binding assay; parameters: scale not given: the % may be the effect or the level left
Sequence of MAP kinase-activated protein kinase 3 (Homo sapiens) (Q16644 whole entry, looked up, the tested form may be a part): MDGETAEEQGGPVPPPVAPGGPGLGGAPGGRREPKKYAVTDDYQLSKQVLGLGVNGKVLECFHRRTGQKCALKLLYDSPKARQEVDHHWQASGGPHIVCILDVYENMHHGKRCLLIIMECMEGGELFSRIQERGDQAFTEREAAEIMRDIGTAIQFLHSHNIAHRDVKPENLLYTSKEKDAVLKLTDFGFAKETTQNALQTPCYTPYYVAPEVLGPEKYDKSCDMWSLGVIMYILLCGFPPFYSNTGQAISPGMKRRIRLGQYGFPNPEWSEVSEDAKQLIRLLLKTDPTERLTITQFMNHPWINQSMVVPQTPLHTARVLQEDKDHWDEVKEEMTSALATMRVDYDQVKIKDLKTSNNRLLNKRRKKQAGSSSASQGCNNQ

SMILES	Activity [1] [%]	Activity [2] [%]	microsomal CLint [3] [µL/min/mg]	Activity [4] [%]	Activity [5] [%]	Papp A→B [6] [×10⁻⁶ cm/s]	IC50 [7] [µM]	Activity [8] [%]	microsomal CLint [9] [µL/min/mg]	Activity [10] [%]	Activity [11] [%]	Activity [12] [%]	Activity [13] [%]	Activity [14] [%]	Activity [15] [%]
CCCCc1cc(-c2c[nH]c3ncc(-c4cnn(C5CCNCC5)c4)cc23)nc(N)n1	-10	-94	< 10	-27	-59	0.3	> 30	-98	< 10	-38	-86				
CCCCc1cc(-c2c[nH]c3ncccc23)nc(N)n1	2	-63			-23		> 10	-53		6	-33	-15	-52	1	17
CCc1cc(-c2c[nH]c3ncc(-c4cnn(C5CCNCC5)c4)cc23)nc(N)n1	4	-86	< 10	-34	-46	1.3		-96	< 10	200	-63				
Nc1nccc(-c2c[nH]c3ncccc23)n1 [MERIOLIN 1]	-17	-73		-2	-15			-41		-30	-20	-3	-69	-11	-8
